Values belong to the compound of their own block, whether it stands above or below them.
Experiments:
[1] = target: T1, SMYD3 (Homo sapiens (Human), UniProt Q9H7B4); assay: SMYD3 biochemical assay (SPA, 3H-SAM methylation of MEKK2 protein substrate)
How it was run: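 SPA methyltransferase format: tag-cleaved human SMYD3, insect-cell GST-MEKK2 protein substrate, 3H-SAM donor, 30 min RT enzyme–compound preincubation, 100 uM cold SAM quench.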

[2] = target: T1, SMYD3; assay: SMYD3 cell assay (Trimethyl-MEKK2 In-Cell Western in 293T/17 cells); format: cell-based
How it was run: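 In-Cell Western readout: methanol-fixed cells stained for trimethyl-MEKK2 and flag tag, ratio per well normalized to DMSO and background controls.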

[3] = average of n = 1 to n = 50, read-out: SMYD3 Biochem IC50
[4] = average of n = 1 to n = 50, read-out: SMYD3 Cell IC50
[5] = read-out: SMYD3 Biochem IC50 (μM)*
[6] = 293T/17 cells, read-out: SMYD3 Cell IC50 (μM)*
[7] = Table 2A, read-out: SMYD3 Biochem IC50
[8] = Table 2A, read-out: SMYD3 Cell IC50

T1 sequence (Q9H7B4 whole entry): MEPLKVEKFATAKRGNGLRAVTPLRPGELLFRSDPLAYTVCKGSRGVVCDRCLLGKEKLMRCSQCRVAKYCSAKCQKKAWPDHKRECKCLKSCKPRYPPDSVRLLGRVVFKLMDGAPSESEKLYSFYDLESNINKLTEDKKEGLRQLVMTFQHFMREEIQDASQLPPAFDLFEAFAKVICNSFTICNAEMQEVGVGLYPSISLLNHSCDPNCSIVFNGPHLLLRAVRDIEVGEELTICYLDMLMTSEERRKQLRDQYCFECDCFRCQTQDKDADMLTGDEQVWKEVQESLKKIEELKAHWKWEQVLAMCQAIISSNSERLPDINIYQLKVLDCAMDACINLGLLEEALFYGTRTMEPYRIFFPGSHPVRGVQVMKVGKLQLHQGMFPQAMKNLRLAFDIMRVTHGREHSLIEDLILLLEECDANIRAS

- IC50 ([1]; read-out: SMYD3 Biochem IC50*): 0.00095 µM
- IC50 ([2]; read-out: SMYD3 Cell IC50*): 0.0327 µM
Compound: C[C@H]1C[C@@H](NC(=O)c2cc(C3CC3)on2)CCN1S(=O)(=O)C[C@H]1CC[C@H](N)C1 [compound 772, N-((2S,4S)-1-((((1S,3S)-3-aminocyclopentyl)methyl)sulfonyl)-2-methylpiperidin-4-yl)-5-cyclopropylisoxazole-3-carboxamide]

Compound: CCC1CN(S(=O)(=O)N2[C@@H]3CC[C@H]2C[C@@H](NC(=O)c2cc(C4CC4)on2)C3)CCN1C (stereo partly drawn) [compound 713, 5-cyclopropyl-N-((1R,3r,5S)-8-((3-ethyl-4-methylpiperazin-1-yl)sulfonyl)-8-azabicyclo[3.2.1]octan-3-yl)isoxazole-3-carboxamide]
- IC50 [1, 3]: 0.293 µM
- IC50 [2, 4]: 1.18 µM

Compound: CN1CCC[C@H](S(=O)(=O)N2[C@@H]3CC[C@H]2C[C@@H](NC(=O)c2cc(C4CC4)on2)C3)C1 [compound 952, 5-cyclopropyl-N-((1R,3S,5S)-8-(((S)-1-methylpiperidin-3-yl)sulfonyl)-8-azabicyclo[3.2.1]octan-3-yl)isoxazole-3-carboxamide]
- IC50 ([1]; read-out: SMYD3 Biochem IC50*): 0.0562 µM
- IC50 ([2]; read-out: SMYD3 Cell IC50*): 0.281 µM

Compound: CN1CC2CCC1CN2S(=O)(=O)N1[C@@H]2CC[C@H]1C[C@@H](NC(=O)c1cc(C3CC3)on1)C2 [compound 895, 5-cyclopropyl-N-((1R,3r,5S)-8-((5-methyl-2,5-diazabicyclo[2.2.2]octan-2-yl)sulfonyl)-8-azabicyclo[3.2.1]octan-3-yl)isoxazole-3-carboxamide]
- IC50 ([1]; read-out: SMYD3 Biochem IC50*): 0.0139 µM
- IC50 ([2]; read-out: SMYD3 Cell IC50*): 0.186 µM

- IC50 [1, 5]: 0.0541 µM
- IC50 [2, 6]: 1.62 µM
Compound: NCCCC(=O)N1CC[C@H](NC(=O)c2cc(C3CC3)on2)C[C@@H]1Cc1ccccc1 [compound 336, N-((2S,4S)-1-(4-aminobutanoyl)-2-benzylpiperidin-4-yl)-5-cyclopropylisoxazole-3-carboxamide]

Compound: CCCN(C)C1CCN(S(=O)(=O)N2[C@@H]3CC[C@H]2C[C@@H](NC(=O)c2cc(C4CC4)on2)C3)CC1 [compound 862, 5-cyclopropyl-N-((1R,3r,5S)-8-((4-(methyl(propyl)amino)piperidin-1-yl)sulfonyl)-8-azabicyclo[3.2.1]octan-3-yl)isoxazole-3-carboxamide]
- IC50 ([1]; read-out: SMYD3 Biochem IC50*): 0.00769 µM
- IC50 ([2]; read-out: SMYD3 Cell IC50*): 0.0765 µM

- IC50 [1, 5]: > 10 µM
- IC50 [2, 6]: > 40 µM
Compound: NCCCC(=O)N1CC[C@@H](NC(=O)c2cc(C3CC3)on2)C[C@H]1Cc1ccccc1 [compound 333, N-((2R,4R)-1-(4-aminobutanoyl)-2-benzylpiperidin-4-yl)-5-cyclopropylisoxazole-3-carboxamide]

Compound: CN(C1CCCNC1)S(=O)(=O)N1[C@@H]2CC[C@H]1C[C@@H](NC(=O)c1cc(C3CC3)on1)C2 (stereo partly drawn) [compound 951, 5-cyclopropyl-N-((1R,3r,5S)-8-(N-methyl-N-(piperidin-3-yl)sulfamoyl)-8-azabicyclo[3.2.1]octan-3-yl)isoxazole-3-carboxamide]
- IC50 ([1]; read-out: SMYD3 Biochem IC50*): 0.0541 µM
- IC50 ([2]; read-out: SMYD3 Cell IC50*): 0.395 µM

- IC50 [1, 7]: 0.0094 µM
- IC50 [2, 8]: 0.289 µM
Compound: C[C@H]1C[C@@H](NC(=O)c2cc(C3CC3)on2)CCN1S(=O)(=O)CCCNCc1ccc2ccccc2c1 [compound 578, 5-cyclopropyl-N-((2S,4S)-2-methyl-1-((3-((naphthalen-2-ylmethyl)amino)propyl)sulfonyl)piperidin-4-yl)isoxazole-3-carboxamide]

- IC50 ([1]; Table 1A, IC50 values are an average of n = 1 to n = 50, read-out: SMYD3 Biochem IC50): 5.54 µM
- IC50 ([2]; Table 1A, IC50 values are an average of n = 1 to n = 50, read-out: SMYD3 Cell IC50): > 10 µM
Compound: C[C@H]1C[C@H](NC(=O)c2cc(C3CC3)on2)CCN1S(=O)(=O)c1ccc(NCCN2CCOCC2)nc1 [compound 507, 5-cyclopropyl-N-((2S,4R)-2-methyl-1-((6-((2-morpholinoethyl)amino)pyridin-3-yl)sulfonyl)piperidin-4-yl)isoxazole-3-carboxamide]

Compound: CC(C)CN(C)c1ccc(S(=O)(=O)N2CC[C@@H](NC(=O)c3cc(C4CC4)on3)C[C@H]2C)cn1 [compound 454, 5-cyclopropyl-N-((2R,4R)-1-((6-(isobutyl(methyl)amino)pyridin-3-yl)sulfonyl)-2-methylpiperidin-4-yl)isoxazole-3-carboxamide]
- IC50 [1, 5]: > 10 µM
- IC50 [2, 6]: > 10 µM

- IC50 [1, 3]: 0.469 µM
- IC50 [2, 4]: 6.94 µM
Compound: C[C@H]1C[C@@H](NC(=O)c2cc(C3CC3)on2)CCN1S(=O)(=O)N1CCNCC1Cc1ccccc1 (stereo partly drawn) [compound 737, N-((2S,4S)-1-((2-benzylpiperazin-1-yl)sulfonyl)-2-methylpiperidin-4-yl)-5-cyclopropylisoxazole-3-carboxamide]

Compound: O=C(N[C@H]1C[C@H]2CC[C@@H](C1)N2S(=O)(=O)N1CCNCC1c1ccccc1)c1cc(C2CC2)on1 (stereo partly drawn) [compound 939, 5-cyclopropyl-N-((1R,3r,5S)-8-((2-phenylpiperazin-1-yl)sulfonyl)-8-azabicyclo[3.2.1]octan-3-yl)isoxazole-3-carboxamide]
- IC50 ([1]; read-out: SMYD3 Biochem IC50*): 0.0447 µM
- IC50 ([2]; read-out: SMYD3 Cell IC50*): 0.361 µM

- IC50 [1, 3]: 0.113 µM
- IC50 [2, 4]: 1.3 µM
Compound: C[C@H](N)c1ccc(C(=O)N2CC[C@@H](NC(=O)c3cc(C4CC4)on3)C[C@H]2C)cc1 [compound 679, N-((2R,4R)-1-(4-((S)-1-aminoethyl)benzoyl)-2-methylpiperidin-4-yl)-5-cyclopropylisoxazole-3-carboxamide]

- IC50 [1, 5]: 0.25 µM
- IC50 [2, 6]: 1.86 µM
Compound: NCCCS(=O)(=O)N1CC[C@H](NC(=O)c2cc(C3CC3)on2)C[C@H]1Cc1ccccc1 [compound 423, N-((2R,4S)-1-((3-aminopropyl)sulfonyl)-2-benzylpiperidin-4-yl)-5-cyclopropylisoxazole-3-carboxamide]

- IC50 [1, 3]: 0.326 µM
- IC50 [2, 4]: 2.73 µM
Compound: O=C(N[C@@H]1CCN(S(=O)(=O)CC2CCNCC2)[C@@H](Cc2ccccc2)C1)c1cc(C2CC2)on1 [compound 723, N-((2S,4R)-2-benzyl-1-((piperidin-4-ylmethyl)sulfonyl)piperidin-4-yl)-5-cyclopropylisoxazole-3-carboxamide]

- IC50 [1, 5]: 0.961 µM
- IC50 [2, 6]: 13 µM
Compound: C[C@H]1C[C@@H](NC(=O)c2cc(C3CC3)on2)CCN1C(=O)CC(C)(C)CN [compound 337, N-((2S,4S)-1-(4-amino-3,3-dimethylbutanoyl)-2-methylpiperidin-4-yl)-5-cyclopropylisoxazole-3-carboxamide]

- IC50 [1, 3]: 0.156 µM
- IC50 [2, 4]: 4.04 µM
Compound: C[C@H]1CN(S(=O)(=O)CC2CCN(CCN3CCCCC3)CC2)CC[C@H]1NC(=O)c1cc(C2CC2)on1 [compound 693, 5-cyclopropyl-N-((3S,4R)-3-methyl-1-(((1-(2-(piperidin-1-yl)ethyl)piperidin-4-yl)methyl)sulfonyl)piperidin-4-yl)isoxazole-3-carboxamide]

- IC50 [1, 5]: 0.00307 µM
- IC50 [2, 6]: 0.0508 µM
Compound: C[C@H]1C[C@@H](NC(=O)c2cc(C3CC3)on2)CCN1S(=O)(=O)CC1CCNCC1 (single isomer, unassigned) [Cpd. No. 417]

Compound: CC(C)CCN(C)C1CCN(S(=O)(=O)N2[C@@H]3CC[C@H]2C[C@@H](NC(=O)c2cc(C4CC4)on2)C3)CC1 [compound 846, 5-cyclopropyl-N-((1R,3r,5S)-8-((4-(isopentyl(methyl)amino)piperidin-1-yl)sulfonyl)-8-azabicyclo[3.2.1]octan-3-yl)isoxazole-3-carboxamide]
- IC50 ([1]; read-out: SMYD3 Biochem IC50*): 0.00536 µM
- IC50 ([2]; read-out: SMYD3 Cell IC50*): 0.0802 µM

- IC50 [1, 7]: 0.0188 µM
- IC50 [2, 8]: 0.451 µM
Compound: C[C@H]1C[C@@H](NC(=O)c2cc(C3CC3)on2)CCN1S(=O)(=O)CCCNCc1cccc(C(F)(F)F)c1 [compound 609, 5-cyclopropyl-N-((2S,4S)-2-methyl-1-((3-((3-(trifluoromethyl)benzyl)amino)propyl)sulfonyl)piperidin-4-yl)isoxazole-3-carboxamide]

- IC50 ([1]; read-out: SMYD3 Biochem IC50*): 0.00962 µM
- IC50 ([2]; read-out: SMYD3 Cell IC50*): 0.169 µM
Compound: C[C@H]1CN(S(=O)(=O)[C@H]2CC[C@@H](N)CC2)CC[C@H]1NC(=O)c1cc(C2CC2)on1 [compound 873, N-((3S,4R)-1-(((1s,4R)-4-aminocyclohexyl)sulfonyl)-3-methylpiperidin-4-yl)-5-cyclopropylisoxazole-3-carboxamide]

Compound: O=C(N[C@H]1C[C@H]2CCC[C@@H](C1)N2S(=O)(=O)CC1CCNCC1)c1cc(C2CC2)on1 [compound 673, 5-cyclopropyl-N-((1R,3r,5S)-9-((piperidin-4-ylmethyl)sulfonyl)-9-azabicyclo[3.3.1]nonan-3-yl)isoxazole-3-carboxamide]
- IC50 [1, 3]: 0.106 µM
- IC50 [2, 4]: 1.68 µM

Compound: CC(C)CN1C2CCC1CN(S(=O)(=O)N1[C@@H]3CC[C@H]1C[C@@H](NC(=O)c1cc(C4CC4)on1)C3)C2 [compound 866, 5-cyclopropyl-N-((1R,3r,5S)-8-((8-isobutyl-3,8-diazabicyclo[3.2.1]octan-3-yl)sulfonyl)-8-azabicyclo[3.2.1]octan-3-yl)isoxazole-3-carboxamide]
- IC50 ([1]; read-out: SMYD3 Biochem IC50*): 0.00863 µM
- IC50 ([2]; read-out: SMYD3 Cell IC50*): 0.201 µM

Compound: CC(C)CN1CCC(CS(=O)(=O)N2[C@@H]3CC[C@H]2C[C@@H](NC(=O)c2cc(C4CC4)on2)C3)CC1 [compound 809, 5-cyclopropyl-N-((1R,3r,5S)-8-(((1-isobutylpiperidin-4-yl)methyl)sulfonyl)-8-azabicyclo[3.2.1]octan-3-yl)isoxazole-3-carboxamide]
- IC50 ([1]; read-out: SMYD3 Biochem IC50*): 0.00249 µM
- IC50 ([2]; read-out: SMYD3 Cell IC50*): 0.0427 µM

Compound: C[C@H](N)c1ccc(S(=O)(=O)N2[C@@H]3CC[C@H]2C[C@@H](NC(=O)c2cc(C4CC4)on2)C3)cc1 [compound 931, N-((1R,3S,5S)-8-((4-((S)-1-aminoethyl)phenyl)sulfonyl)-8-azabicyclo[3.2.1]octan-3-yl)-5-cyclopropylisoxazole-3-carboxamide]
- IC50 ([1]; read-out: SMYD3 Biochem IC50*): 0.0372 µM
- IC50 ([2]; read-out: SMYD3 Cell IC50*): 0.526 µM

Reference: patent publication US10577363B2, “Substituted piperidine compounds” (EPIZYME, INC., priority 2014, dated 2020)
